The record followed here is US5658906A, “Cysteine protease and serine protease inhibitors” (Cephalon, Inc., priority 1996, dated 1997).

Broadly, the inhibition is the drop in the measured response relative to a control, in per cent.

For test [1], the target named is T1, Calpain I (Homo sapiens, UniProt P07384).
T1 construct: Calpain I was purified from human red blood cells; from tissue; host or cells: human red blood cells (packed, outdated)
T1 sequence (P07384 1-714): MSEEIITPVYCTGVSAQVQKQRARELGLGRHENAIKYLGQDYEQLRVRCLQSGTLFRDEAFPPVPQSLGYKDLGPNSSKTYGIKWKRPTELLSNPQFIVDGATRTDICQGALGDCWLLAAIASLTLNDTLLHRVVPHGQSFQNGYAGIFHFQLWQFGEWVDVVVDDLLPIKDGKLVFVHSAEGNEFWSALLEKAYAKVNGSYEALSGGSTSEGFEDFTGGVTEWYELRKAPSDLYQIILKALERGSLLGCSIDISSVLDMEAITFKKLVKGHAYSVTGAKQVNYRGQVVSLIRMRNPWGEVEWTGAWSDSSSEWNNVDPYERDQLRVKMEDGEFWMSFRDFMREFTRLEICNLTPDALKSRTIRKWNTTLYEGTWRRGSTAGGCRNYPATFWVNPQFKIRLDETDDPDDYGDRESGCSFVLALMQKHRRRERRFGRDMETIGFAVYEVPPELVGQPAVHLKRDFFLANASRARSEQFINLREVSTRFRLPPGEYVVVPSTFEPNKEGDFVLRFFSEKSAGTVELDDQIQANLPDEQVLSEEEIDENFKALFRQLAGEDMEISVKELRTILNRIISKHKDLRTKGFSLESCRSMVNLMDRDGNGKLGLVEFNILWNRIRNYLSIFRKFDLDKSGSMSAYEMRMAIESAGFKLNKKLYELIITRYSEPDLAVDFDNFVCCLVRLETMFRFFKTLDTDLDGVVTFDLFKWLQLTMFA
T1 sequence (P04632 1-268 partner): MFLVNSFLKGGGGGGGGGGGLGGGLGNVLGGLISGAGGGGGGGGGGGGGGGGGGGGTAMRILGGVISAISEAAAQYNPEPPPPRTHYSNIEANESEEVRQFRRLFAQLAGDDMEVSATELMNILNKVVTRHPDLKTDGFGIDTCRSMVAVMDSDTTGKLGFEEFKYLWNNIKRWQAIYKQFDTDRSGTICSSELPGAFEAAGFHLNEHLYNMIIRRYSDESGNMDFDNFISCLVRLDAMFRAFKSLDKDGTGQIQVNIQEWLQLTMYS
The test can be described thus: Inhibition and rate of inactivation of calpain I (Succ-Leu-Tyr-MNA hydrolysis). It counts as biochemical. To be noted: mean of three or more independent analyses, corrected for substrate, k2 = kapp(1+[S]/Km), read-out: k2 (second order rate constant of inactivation), A = Calpain I. The procedure: To evaluate inhibitory activity of our compounds, stocks (40 times concentrated) of each compound to be tested were prepared in 100% anhydrous dimethyl sulfoxide (DMSO) and 5 μl of each inhibitor preparation was aliquoted into each of three wells of a 96 well plate. Calpain I was purified from human red blood cells using a modification of the method described by Lee, W. J. et al. (Biochem. Internatl. (1990)22(1): 163-171). Briefly, 3 units of packed outdated red blood cells were washed 3× by repeated centrifugation at 500 rpm for 10 minutes through 900 mls of 0.9% NaCl. Cells were lysed in 20 mM Tris/1 mM EDTA/1 mM EGTA/5 mM mercaptoethanol (Buffer A) and centrifuged for 1 hour at 12,000 rpm in a GSA rotor using a Sorval centrifuge. The supernatant was collected and applied to a DEAE-sepharose FF column equilibrated in Buffer A+25 mM NaCl. After washing the column in Buffer A+25 mM NaCl, the bound protein was eluted at 117 ml/hr with a 25 mM to 150 mM NaCl linear gradient in Buffer A collecting 200, 10 mL fractions. Two μl of every fifth fraction was applied to nitrocelluose using a dot blot apparatus and calpain containing fractions identified by Western analysis. For detection of calpain, nitrocellulose sheets were first blocked in 5% Blotto (5% Carnation instant milk/10 mM Tris/[…]150 mM NaCl) for 30 minutes, followed by incubation for 1 hour in antibody directed against Calpain I (rabbit anti-human calpain I polyclonal sera, 1:1000 dilution in 5% Blotto). After three 5 minutes washes in 10 mM Tris/150 mM NaCl/0.05% Tween 20 the nitrocellulose was incubated for 1 hour in secondary alkaline phosphatase conjugated antibody (Biorad Cat#170-6518 1:2000 in 5% Blotto). After three 5 minutes washes in 10 mM Tris/150 mM NaCl/0.05% Tween 20 and 1 wash in 10 mM Tris/150 mM NaCl the nitrocellulose was incubated for up to 2 hours in a colorimetric substrate solution (Biorad Alkaline Phosphatase Substrate conjugate kit, cat#170-6432). The reaction was stopped by washing in water. After fractions containing calpain, and those in between, were pooled, solid ammonium sulfate was added to achieve a 30% solution and the mixture stirred for 1 hour at 4° C. Following collection of the precipitate by centrifugation for 1 hour at 4° C. at 12K rpm in a GSA rotor, the supernatant was collected and brought to 45% in ammonium sulfate. After stirring for 1 hour at 4° C., centrifugation was repeated. The supernatant was discarded and the precipitate resuspended in approximately 7 mls and dialyzed overnight at 4° C. against Buffer A+50 mM NaCl. The sample was then applied to a S300 gel filtration column preequilibrated in Buffer A+50 mM NaCl, washed and eluted at a flow rate of 20 ml/hr, collecting 200, 4 ml fractions. The peak of calpain was determined by assaying aliquots of every fifth fraction for enzyme activity monitored by the hydrolysis of a fluorogenic dipeptide substrate as described below. The peak fractions were pooled and the enzyme preparation used to test compounds for inhibitory activity. As an alternate to enzyme isolated from tissue sources, recombinant human calpain I has also been used to monitor compounds for inhibitory activity.
The foregoing enzyme preparation was diluted into assay buffer (i.e., 50 mM Tris, 50 mM NaCl, 1 mM EDTA, 1 mM EGTA, and 5 mM β-mercaptoethanol, pH 7.5 including 0.2 mM Succ-Leu-Tyr-MNA) and 175 μl aliquoted into the same wells containing the independent inhibitor stocks as well as to positive control wells containing 5 μl DMSO, but no compound. To start the reaction, 20 μl of 50 mM CaCl2 in assay buffer was added to all wells of the plate, excepting three, which were used as background signal baseline controls. Substrate hydrolysis was monitored every 5 minutes for a total of 30 minutes using Flouroskan II (ex=340 nm; em=430 nm). Substrate hydrolysis in the absence of inhibitor was linear for up to 15 minutes. […]

Test [2] concerns calpain I in Molt-4 cells (α-spectrin breakdown products). Put plainly: Inhibition of calpain activation in intact Molt-4 cells (calpain-generated spectrin breakdown products). In kind it is cell-based. The following applies: Homo sapiens, calcium and ionophore (ionomycin), read-out: % Inhibition of BDPs (10 μM).
The target of test [3] is T2, Cathepsin B (Homo sapiens, UniProt P07858).
T2 construct: purchased Calbiochem 219364
Put plainly: Inhibition and rate of inactivation of cathepsin B (Cbz-Phe-Arg-AMC hydrolysis). It counts as biochemical. The following applies: pH 6.0, 0.1 mM substrate, read-out: k2 (second order rate constant of inactivation), C = Cathepsin B. Here is the method: Additionally, the order of reagents added to the plate was altered because both enzymes are constitutively active. Following inhibitor addition to the plates appropriate 2× concentrated stock dilutions of the enzyme preparations were made in assay buffer and 100 ul added to each well. The assay was initiated by addition of 100 ul of 2× concentrated stock dilution of substrate in assay buffer. Substrate hydrolysis was monitored using a Fluroskan II (ex=390 nm; em=460 nm).
Inhibition of enzyme activity was calculated as the percent decrease in the rate of substrate hydrolysis in the presence of inhibitor (.upsilon.i) relative to the rate in its absence (.upsilon.o). Comparison between .upsilon.o and .upsilon.i was made within the linear range for substrate hydrolysis. For screening, compounds were tested at 10 μM. Compounds having ≥50% inhibition at 10 μM were considered active. Apparent second order rate constants were determined from analysis of reaction progress curves under pseudo-first order conditions. Each determination represents the mean of three or more independent single cuvette analyses continually monitored via a Perkin-Elmer LS50B spectrofluorimeter. The rate of inhibition of hydrolysis was obtained by fitting the curve to the exponential equation (1):
y=Ae^-k.spsb.obs·t +B (1)
where y (Pt) is the product formed at time t. A and B are constants. A, the amplitude of the reaction, is given by [Po -P.varies. ] and B (=P.varies.) is the maximal product formed when the reaction is […]. This was corrected for the presence of equation (2): […]

Test [4] addresses T3, α-chymotrypsin (Bos taurus, UniProt P00766).
T3 construct: purchased Sigma Chem. Co. C-3142
Put plainly: Inhibition of the serine protease α-chymotrypsin (Succ-Ala-Ala-Pro-Phe-AMC hydrolysis). In kind it is biochemical. The following applies: pH 7.5, 0.03 mM substrate. Here is the method: Additionally,because α-chymotrypsin is not a calcium sensitive enzyme and is constituitively active, following addition of inhibitor stocks to the 96 well plates, 100 ul of a 2 fold concentrated stock of enzyme in dilution buffer was first added and the reaction started by addition of 100 ul of a 2 fold concentrated stock of substrate in assay buffer. Substrate hydrolysis was monitored every 5 minutes up to 30 minutes using a Fluoroskan II ([…]).

Molecules are shown by their SMILES.

With `CC(C)C[C@H](NC(=O)OCc1ccccc1)C(=O)N[C@@H](Cc1ccccc1)C(=O)COn1nnc2c(F)c(F)ccc21` [Example 25, 1-[N-[N-Benzyloxycarbonyl-L-leucyl]-3S-4-phenyl-3-amino-2-oxybutyloxy]-4',5'-difluorobenzotriazole], the values for the kinact/KI in test [1] and in test [3] were 67000 M⁻¹ s⁻¹ and 300000 M⁻¹ s⁻¹, respectively. For the same molecule, the inhibition at 10 µM in test [2] was 52%.
Consider `CC(C)C[C@H](NC(=O)[C@H](CC(C)C)NC(=O)OCc1ccccc1)C(=O)COn1nnc2ccccc21` [Example 4, 1-[N-[N-Benzyloxycarbonyl-L-leucyl]-3S-5-methyl-3-amino-2-oxohexyloxy]benzotriazole], for which the kinact/KI in test [1] came out at 175000 M⁻¹ s⁻¹; in test [3], 19000 M⁻¹ s⁻¹. In addition, in test [2], the inhibition at 10 µM is 57%.
In the case of `CC(C)C[C@H](NC(=O)OCc1ccccc1)C(=O)N[C@@H](Cc1ccccc1)C(=O)COn1cnc2ccccc21` [Example 22, 1-[N-[N-Benzyloxycarbonyl-L-leucyl]-(3S)-4-phenyl-3-amino-2-oxybutyloxy]benzimidazole], the kinact/KI in test [1] came out at 4000 M⁻¹ s⁻¹. The inhibition at 10 µM in test [2] came to 61%; in test [4] it was 91%.
